Square brackets hold non-standard residues; d marks the D form. Peptide text beside a SMILES is read from it. * marks the point of attachment. Phe(F5) = N[C@@H](Cc1c(F)c(F)c(F)c(F)c1F)C(=O)O; Phe(4-Cl) = N[C@@H](Cc1ccc(Cl)cc1)C(=O)O; hArg = N=C(N)NCCCC[C@H](N)C(=O)O; 12Ado = NCCCCCCCCCCCC(=O)O; Nle = CCCC[C@H](N)C(=O)O; Orn = NCCC[C@H](N)C(=O)O; Abu = CC[C@H](N)C(=O)O; PhAc = O=C(Cc1ccccc1)*
Assays:
[1] = system: Alzheimer's disease related genes; experiment: Mouse Alzheimer's Disease real-time quantitative PCR array on brain samples of 5XFAD mice; type: in vivo; settings: brain of 5XFAD mice, 10 μg daily for six months
Procedure: Total RNA was isolated and DNAse treated from representative hemispheria using NucleoSpin kit according to the manufacturer's instructions (Macherey-Nagel Inc., Bethlehem, Pa.). Five samples each from the control and the 10 μg MIA-690 group were analyzed. The yield and the quality of RNA samples were determined spectrophotometrically using 260 nm, and 260/280 and 260/230 nm ratio. The synthesis of cDNA was performed as follows. Briefly, 1 μg of RNA from each sample was reverse-transcribed into cDNA by RT First Strand kit (Qiagen). Reverse transcription was done in a Veriti 96-well thermal cycler (Applied Biosystems). The Mouse Alzheimer's Disease real-time quantitative PCR array (PAMM-057Z Qiagen) used in the study contains 84 unique genes related to Alzheimer's disease. All PCR arrays were performed using iQ5 Multicolor Real-Time Detections System (Bio-Rad). […] Data analysis of gene expression was performed using Excel based PCR Array Data Analysis Software provided by the manufacturer (Qiagen): fold-changes in gene expression were calculated using the ΔΔCt method and five stably expressed housekeeping genes (Act b, B2m, GAPDH, Gus b, Hsp 90 ab1) were used for normalization of the results.

HCN-2 cells = experiment: Cell viability assay, HCN-2 cells treated with amyloid-β1-42 (MTT), Example 5; type: cell-based; settings: 10 μM amyloid-β1-42; peptide 10 nM, 100 nM, 1 μM; four days of exposure; FIG. 7
Procedure: Differentiated HCN-2A neuronal cells were treated with 10 μM amyloid-β1-42 alone and in combination with 10 nM, 100 nM and 1 μM of MIA-602, MIA-606 and MIA 640. After the treatment, the cell viability was determinate as indicated by the supplier using the Promega Cell Titer 96® Aqueous Non-Radioactive Cell Proliferation Assay. The absorbance level was determined at 490 nm. Data are percentage of control (n=3).
HCN-2 cells (American Type Culture Collection, Manassas, Va., USA) were cultured in DMEM medium (supplemented with 10% Fetal Bovine Serum (FBS) and 0.1% penicillin/streptomycin) at 37° C. and in an atmosphere of air and 5% CO2. Cell were directly plated into 96-well micro plates at 5,000 cells/cm^2. After 7 days, to allow cell number duplication (up to 70-80% confluence), the differentiation of HCN-2 cells was induced by adding fresh medium containing 25 ng/ml NGF, 0.5 mM dibutyryl cAMP and 0.5 mM isobutylmethylxanthine (IBMX) (all from Sigma-Aldrich, St. Louis, Mo.) for a week. Then, human amyloid-β1-42 (Sunnyvale, Calif.) stock solution (10 mM) was prepared in TRIS and then immediately diluted to appropriate concentrations in the assay medium. The medium used for neurotoxicity assay was N2-supplemented DMEMF12 (Gibco BRL, NY) with 2% FBS. The treatment groups were control, amyloid-β1-42, and the combination treatments with amyloid-β1-42 and 3 doses (10 nM, 100 nM and 1 μM) of the analogs (MIA-602, MIA-606 and MIA-640). The effect of the analogs on cell viability was evaluated after four days of exposure by using the 3-(4,5-Dimethylthiazol-2-yl)-2,5-diphenyltetrazolium bromide (MTT) assay (Cell Titer 96® Non-Radioactive Cell Proliferation Assay, Promega, Madison, Wis.), according to the manufacturer's instructions.

Row | Compound | Fold change vs. controls: amyloid-β (A4) precursor protein binding family A, member 2 [1] [fold] | Fold change vs. controls: amyloid-β (A4) precursor protein binding family B, member 3 [1] [fold] | viability of neurons (HCN-2) under amyloid-β1-42 co-treatment (HCN-2 cells)
1 | CCCC[C@H](NC(=O)[C@@H](NC(=O)[C@H](CC(=O)O)NC(=O)[C@H](CCC(N)=O)NC(=O)[C@H](CC(C)C)NC(=O)[C@H](CC(C)C)NC(=O)[C@H](CCCN)NC(=O)[C@H](Cc1c[nH]cn1)NC(=O)[C@H](C)NC(=O)[C@H](CO)NC(=O)[C@H](CC(C)C)NC(=O)[C@H](CCC(N)=O)NC(=O)[C@H](CC)NC(=O)[C@H](CC(C)C)NC(=O)[C@@H](NC(=O)[C@H](CCCN)NC(=O)[C@H](Cc1c[nH]cn1)NC(=O)[C@H](Cc1c(F)c(F)c(F)c(F)c1F)NC(=O)[C@H](CCCCNC(=N)N)NC(=O)[C@H](C)NC(=O)[C@@H](NC(=O)[C@H](Cc1ccc(Cl)cc1)NC(=O)[C@@H](NC(=O)[C@H](C)NC(=O)[C@H](CC(=O)O)NC(=O)[C@@H](CCCNC(=N)N)NC(=O)[C@H](Cc1ccc(O)cc1)NC(=O)CCCCCCCCCCCNC(=O)Cc1ccccc1)[C@@H](C)CC)[C@@H](C)O)C(C)C)[C@@H](C)CC)C(=O)N[C@H](CCCNC(=N)N)C(=O)N[C@@H](CCCCNC(=N)N)C(N)=O [MIA-690, Phac-Ada-Tyr^1-D-Arg^2-Asp^3-Ala^4-Ile^5-Cpa^6-Thr^7-Ala^8-Har^9-Fpa5^10-His^11-Orn^12-Val^13-Leu^14-Abu^15-Gln^16-Leu^17-Ser^18-Ala^19-His^20-Orn^21-Leu^22-Leu^23-Gln^24-Asp^25-Ile^26-Nle^27-D-Arg^28-Har^29-NH2] ({PhAc-12Ado}-Y[dR]DAI[Phe(4-Cl)]TA[hArg][Phe(F5)]H[Orn]VL[Abu]QLSAH[Orn]LLQDI[Nle][dR][hArg]-NH2) | −2.94 | −2.04 | –
2 | Phac-Ada-Tyr^1-D-Arg^2-Asp^3-Ala^4-Ile^5-Cpa^6-Thr^7-Ala^8-Har^9-Fpa5^10-His^11-Orn^12-Val^13-Leu^14-Abu^15-Gln^16-Glu^17-Ser^18-Ala^19-His^20-Orn^21-Leu^22-Leu^23-Gln^24-Asp^25-Ile^26-Nle^27-D-Arg^28-Har^29-Ada-NH2 [MIA-640] | – | – | attenuated the toxic impact of co-treatment with amyloid-β1-42 on the viability of neurons
3 | Phac-Ada-Tyr^1-D-Arg^2-Asp^3-Ala^4-Ile^5-Phe(F)5^6-Thr^7-Ala^8-Har^9-Tyr(Me)^10-His^11-Orn^12-Val^13-Leu^14-Abu^15-Gln^16-Leu^17-Ser^18-Ala^19-His^20-Orn^21-Leu^22-Leu^23-Gln^24-Asp^25-Ile^26-Nle^27-D-Arg^28-Har^29-NH2 [MIA-602] | – | – | attenuated the toxic impact of co-treatment with amyloid-β1-42 on the viability of neurons
4 | Phac-Ada-Tyr^1-D-Arg^2-Asp^3-Ala^4-Ile^5-Phe(F)5^6-Thr^7-Me-Ala^8-Har^9-Tyr(Me)^10-His^11-Orn^12-Val^13-Leu^14-Abu^15-Gln^16-Leu^17-Ser^18-Ala^19-His^20-Orn^21-Leu^22-Leu^23-Gln^24-Asp^25-Ile^26-Nle^27-D-Arg^28-Har^29-Agm-NH2 [MIA-606] | – | – | attenuated the toxic impact of co-treatment with amyloid-β1-42 on the viability of neurons

Reference: patent US20150166617A1, “COMPOSITIONS AND METHODS OF TREATING ALZHEIMER'S DISEASE” (UNIVERSITY OF MIAMI, priority 2012, published 2015)
